{
  "source": "paper PMC8694143",
  "about": "(Microbiology Spectrum, 2021)",
  "key": {"sheep red blood cells": {"tested_on": "sheep red blood cells", "experiment": "Hemolytic activity assay", "assay_type": "cell-based", "conditions": "peptides at 100 μg/mL, 1 h, relative to the δ-toxin and other STIPs", "protocol": "Thirty-five percent defibrinated sheep’s blood (vol/vol) was centrifuged for 5 min at 4,000 rpm to harvest red blood cells. The cells were washed three times with PBS and harvested by centrifugation prior to dilution to 15% (vol/vol) in PBS in order to evaluate peptide-mediated hemolysis. The assay was performed in 96-well microtiter plates using peptides at 100 μg/mL in a 200-μL volume. […] was used as a negative control and Triton X-100 (0.1% vol/vol) was used as a positive control for complete lysis. After 1 h of incubation, the 96-well microtiter plates were centrifuged at 4,500 rpm for 10 min and a 150 μL aliquot of the supernatant from each sample was carefully transferred to a new 96-well plate. The absorbance of the supernatant was then measured at 540 nm using a Varioskan Lux plate reader (Thermo Scientific). The hemolytic activity is reported relative to complete lysis (%) obtained using Triton X-100. Experiments were performed in triplicate, and statistical differences in hemolysis were measured using an unpaired two-tailed Student’s t test to compare the STIPs and deformylated δ-toxin to the formylated δ-toxin."}, "MRSA ATCC BAA-2313": {"tested_on": "MRSA ATCC BAA-2313", "experiment": "MIC determination in broth", "assay_type": "cell-based, Staphylococcus aureus", "conditions": "STIP3 variants, highest conc. tested 100 μg/mL; cation-adjusted MH broth, ~10^5 CFU/mL, 2-fold dilution series, 37°C, 16 h", "how_it_was_run": "(§1)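 Peptides from the initial screen are tested as 2-fold dilution series against an inoculum of about 10^5 CFU/mL in cation-adjusted Mueller-Hinton medium, incubated at 37°C without agitation.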"}, "MRSA ATCC BAA-42": {"tested_on": "MRSA ATCC BAA-42", "experiment": "MIC determination in broth", "assay_type": "cell-based, Staphylococcus aureus", "conditions": "STIP3 variants, highest conc. tested 100 μg/mL; cation-adjusted MH broth, ~10^5 CFU/mL, 2-fold dilution series, 37°C, 16 h", "how_it_was_run": "as §1"}, "MRSA ATCC 33592": {"tested_on": "MRSA ATCC 33592", "experiment": "MIC determination in broth", "assay_type": "cell-based, Staphylococcus aureus", "how_it_was_run": "as §1"}, "S. aureus ATCC 29213": {"tested_on": "S. aureus ATCC 29213", "experiment": "MIC determination in broth", "assay_type": "cell-based, Staphylococcus aureus", "conditions": "STIP3 variants, highest conc. tested 100 μg/mL; cation-adjusted MH broth, ~10^5 CFU/mL, 2-fold dilution series, 37°C, 16 h", "how_it_was_run": "as §1"}, "MRSA ATCC BAA-1683": {"tested_on": "MRSA ATCC BAA-1683", "experiment": "MIC determination in broth", "assay_type": "cell-based, Staphylococcus aureus", "conditions": "STIP3 variants, highest conc. tested 100 μg/mL; cation-adjusted MH broth, ~10^5 CFU/mL, 2-fold dilution series, 37°C, 16 h", "how_it_was_run": "as §1"}, "MRSA ATCC BAA-44": {"tested_on": "MRSA ATCC BAA-44", "experiment": "MIC determination in broth", "assay_type": "cell-based, Staphylococcus aureus", "conditions": "STIP3 variants, highest conc. tested 100 μg/mL; cation-adjusted MH broth, ~10^5 CFU/mL, 2-fold dilution series, 37°C, 16 h", "how_it_was_run": "as §1"}, "MRSA ATCC BAA-2094": {"tested_on": "MRSA ATCC BAA-2094", "experiment": "MIC determination in broth", "assay_type": "cell-based, Staphylococcus aureus", "conditions": "STIP3 variants, highest conc. tested 100 μg/mL; cation-adjusted MH broth, ~10^5 CFU/mL, 2-fold dilution series, 37°C, 16 h", "how_it_was_run": "as §1"}, "MRSA ATCC BAA-41": {"tested_on": "MRSA ATCC BAA-41", "experiment": "MIC determination in broth", "assay_type": "cell-based, Staphylococcus aureus", "conditions": "STIP3 variants, highest conc. tested 100 μg/mL; cation-adjusted MH broth, ~10^5 CFU/mL, 2-fold dilution series, 37°C, 16 h", "how_it_was_run": "as §1"}, "[1]": {"tested_on": "MRSA ATCC 33592, ATCC 1683 and S. pseudintermedius SPC002", "experiment": "Bactericidal activity time course, short intervals", "assay_type": "cell-based, Staphylococcus aureus; Staphylococcus pseudintermedius", "conditions": "2× MIC, MH broth, 37°C", "protocol": "(§2) Time-dependent inhibition of pathogens was measured using standing bacterial cultures treated with 2× MIC. Overnight cultures were diluted to 10^4 or 10^7 CFU/mL in 2 mL of MH broth supplemented with the appropriate peptide concentration or sterile water as a control. Standing cultures were then incubated at 37°C and 100 μL aliquots were removed at specified time intervals. For the panel of 7 MRSA strains, treatment intervals of 30 min, 4 h, 8 h, and 24 h were used. For MRSA ATCC 33592, ATCC 1683, and S. pseudintermedius SPC002, shorter intervals included 5, 30, 60, 120, 240, and 360 min. The 100-μL aliquots were plated using serial dilutions as necessary on LB agar, and CFU were counted as a measure of bacterial viability after 24 h. To normalize cell viability data, surviving cells in CFU/mL were compared to the initial bacterial inoculum of each strain and then expressed as a percentage of that concentration. All experiments were performed in triplicate with values reported as the mean with standard deviations. Statistical differences in the observed viability of bacteria treated with STIP3-29 were analyzed using a paired two-tailed Student’s t test comparing the pretreatment (0 h) viability to those observed at posttreatment time points using Stata v17.0 software."}, "[2]": {"tested_on": "S. aureus bovid isolate (RDM-1)", "experiment": "MIC determination in broth", "assay_type": "cell-based, Staphylococcus aureus", "conditions": "clinical isolate, mastitis in a dairy cow; MH broth", "protocol": "The MICs were measured for bioactive peptides identified from the initial screen. Cation-adjusted Mueller-Hinton (MH) broth was used as the growth medium for MIC determination experiments. Bacterial cultures were diluted to an OD of 5 × 10^−4 (∼10^5 CFU/mL) in 200 μL MH broth mixed with peptides in a 2-fold dilution series arrayed in 96-well plates. Plates were incubated without shaking at 30 or 37°C depending on the organism."}, "panel of 7 MRSA strains": {"tested_on": "panel of 7 MRSA strains", "experiment": "Bactericidal activity time course, MRSA panel", "assay_type": "cell-based, Staphylococcus aureus", "protocol": "as §2"}},
  "note": "No end group written: not given here.",
  "data": [
    {"substance": "TVGGLVKWILKTVKKFA-NH2 [STIP3-29]", "values": [
      {"measurement": "Change of hemolytic activity", "setting": "sheep red blood cells", "result": "increase in hemolysis"},
      {"measurement": "MIC, S. aureus ATCC BAA 2313 (SCCmec XI)", "setting": "MRSA ATCC BAA-2313", "result": 6.25, "unit": "µg/mL"},
      {"measurement": "MIC, S. aureus ATCC BAA 42 (SCCmec VI)", "setting": "MRSA ATCC BAA-42", "result": 6.25, "unit": "µg/mL"},
      {"measurement": "Improvement to antibiotic activity relative to STIP3-1", "setting": "MRSA ATCC 33592; S. aureus ATCC 29213 and MRSA panel MICs", "result": 16, "unit": "fold"},
      {"measurement": "MIC (μg/mL) for MRSA ATCC 33592", "setting": "MRSA ATCC 33592; Table 1 and text, cation-adjusted MH broth, ~10^5 CFU/mL, 37°C, 16 h", "result": 6.25, "unit": "µg/mL"},
      {"measurement": "MIC, S. aureus ATCC 33592 (SCCmec III)", "setting": "MRSA ATCC 33592; Table S5, STIP3 variants, highest conc. tested 100 μg/mL, cation-adjusted MH broth, ~10^5 CFU/mL, 2-fold dilution series, 37°C, 16 h", "result": 6.25, "unit": "µg/mL"},
      {"measurement": "MIC for MRSA, molar", "setting": "MRSA ATCC 33592; conversion of 6.25 μg/mL", "result": 3.3, "unit": "µM"},
      {"measurement": "MIC, S. aureus ATCC 29213", "setting": "S. aureus ATCC 29213", "result": 12.5, "unit": "µg/mL"},
      {"measurement": "MIC, S. aureus ATCC BAA 1683 (SCCmec IV)", "setting": "MRSA ATCC BAA-1683", "result": 6.25, "unit": "µg/mL"},
      {"measurement": "MIC, S. aureus ATCC BAA 44 (SCCmec I)", "setting": "MRSA ATCC BAA-44", "result": 6.25, "unit": "µg/mL"},
      {"measurement": "MIC, S. aureus ATCC BAA 2094 (SCCmec V)", "setting": "MRSA ATCC BAA-2094", "result": 6.25, "unit": "µg/mL"},
      {"measurement": "MIC, S. aureus ATCC BAA 41 (SCCmec II)", "setting": "MRSA ATCC BAA-41", "result": 6.25, "unit": "µg/mL"},
      {"measurement": "Viability within 5 min of treatment", "setting": "[1]; 5 min, all three strains, normalized to the starting cell count", "result": "≤ 40", "unit": "%"},
      {"measurement": "Recovery of viable bacteria after 2 h of treatment", "setting": "[1]; 2 h, detection limit 10 CFU/mL", "result": "inability to recover viable bacteria"},
      {"measurement": "MIC, S. aureus bovid isolate (RDM-1)", "setting": "[2]", "result": 6.25, "unit": "µg/mL"},
      {"measurement": "Recovery of viable MRSA cells", "setting": "panel of 7 MRSA strains; 12.5 μg/mL (2× MIC), MH broth, 37°C, 4 h, all 7 MRSA strains, triplicate", "result": "less than 1%"},
      {"measurement": "Mode of antibacterial action from viability time courses", "setting": "panel of 7 MRSA strains; MRSA viability during two time course experiments", "result": "bactericidal"}
    ]}
  ]
}
